Measurements from publication PMC8921294, “Inhibition of mitochondrial LonP1 protease by allosteric blockade of ATP binding and hydrolysis via CDDO and its derivatives” (The Journal of Biological Chemistry, 2022).

Target: T1, LonP1^R721G (Homo sapiens, UniProt P36776, R721G)
T1 construct: hexa-histidine (N); made in house; host or cells: Rosetta 2 E. coli
T1 sequence (P36776 68-959 R721G): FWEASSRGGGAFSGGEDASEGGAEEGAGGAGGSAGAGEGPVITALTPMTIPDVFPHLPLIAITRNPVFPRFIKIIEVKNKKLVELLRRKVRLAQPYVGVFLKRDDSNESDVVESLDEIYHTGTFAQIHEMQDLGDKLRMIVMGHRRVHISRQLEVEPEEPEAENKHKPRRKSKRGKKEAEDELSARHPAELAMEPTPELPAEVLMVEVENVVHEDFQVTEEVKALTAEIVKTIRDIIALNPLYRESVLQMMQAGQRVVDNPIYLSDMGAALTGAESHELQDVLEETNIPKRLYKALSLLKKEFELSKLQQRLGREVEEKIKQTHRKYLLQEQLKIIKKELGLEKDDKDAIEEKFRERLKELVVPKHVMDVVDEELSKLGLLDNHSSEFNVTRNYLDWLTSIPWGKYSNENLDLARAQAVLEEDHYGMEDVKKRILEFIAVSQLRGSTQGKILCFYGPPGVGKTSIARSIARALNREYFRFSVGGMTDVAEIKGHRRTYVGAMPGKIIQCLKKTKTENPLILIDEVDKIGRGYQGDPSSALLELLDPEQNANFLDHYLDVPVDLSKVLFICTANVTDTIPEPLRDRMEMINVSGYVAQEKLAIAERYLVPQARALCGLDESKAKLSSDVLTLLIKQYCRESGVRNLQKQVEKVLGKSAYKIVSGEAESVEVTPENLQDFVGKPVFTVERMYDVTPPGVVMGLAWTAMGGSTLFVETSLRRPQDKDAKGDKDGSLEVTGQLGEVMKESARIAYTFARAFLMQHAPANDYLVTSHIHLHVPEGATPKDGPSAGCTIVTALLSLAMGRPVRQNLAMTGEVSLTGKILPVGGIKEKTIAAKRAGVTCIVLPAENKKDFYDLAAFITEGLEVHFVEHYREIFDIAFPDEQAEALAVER
Assay: NADH-coupled ATPase assay, CODAS mutant LonP1^R721G
Format: biochemical
Details: compound 20 μM
Method: Figure 2 The ATPase activity of wild-type LonP1^WTis blocked by CDDO-Me and CDDO-anhydride by noncompetitive and competitive inhibition, respectively, whereas the CODAS mutant LonP1^R721GATPase is resistant to inhibition. ATPase activities were measured using an NADH-coupled ATPase assay. Wild type and mutant LonP1 proteins (400 nM) were pre-incubated with or without compound for 30 min at room temperature. A and E, LonP1^WT, and (H and I) comparison of LonP1^WT and LonP1^R721G. ATP was titrated and its hydrolysis was measured over 5 min (mean ± S.D., N ≥ 2). B and F, double-reciprocal Lineweaver–Burk plots (mean ± S.D., N ≥ 2). C and G, determination of Ki (mean ± S.D., N ≥ 2). D, determination of αKi (mean ± S.D., N ≥ 2). C, G and H. mean values obtained from linear regression data. CDDO, 2-cyano-3,12-dioxooleana-1,9(11)-dien-28-oic acid.
ATPase reactions (200 μl total) were performed in 96-well plates at room temperature. LonP1 (400 nM monomer) was preincubated with DMSO (1–2%) vehicle control or CDDO derivatives in buffer (50 mM HEPES-KOH pH 7.5, 5 mM magnesium acetate, 75 mM potassium acetate) for 30 to 45 min at room temperature or 30 °C. […] The change in NADH absorbance at 340 nm was monitored in Spectramax plate reader for 5 min to obtain reaction velocities. […]

Inhibition of LonP1^R721G ATPase compared with LonP1^WT | Compound
showed resistance | COC(=O)[C@]12CCC(C)(C)C[C@H]1[C@H]1C(=O)C=C3[C@@]4(C)C=C(C#N)C(=O)C(C)(C)[C@@H]4CC[C@@]3(C)[C@]1(C)CC2 [CDDO-Me]
showed resistance | CC1(C)CC[C@]2(C(=O)OC(=O)[C@]34CCC(C)(C)C[C@H]3[C@H]3C(=O)C=C5[C@@]6(C)C=C(C#N)C(=O)C(C)(C)[C@@H]6CC[C@@]5(C)[C@]3(C)CC4)CC[C@]3(C)[C@H](C(=O)C=C4[C@@]5(C)C=C(C#N)C(=O)C(C)(C)[C@@H]5CC[C@]43C)[C@@H]2C1 [CDDO-anhydride]
